The text below walks through data of patent US20250002471A1 (Gilead Sciences, Inc., priority 2020, published 2025).

The target of experiment [1] is T1, TLR7 (Homo sapiens, UniProt Q9NYK1).
T1 construct: lymphocytes, monocytes and dendritic cells that express TLR7, TLR8 and TLR9; endogenous in cells; host or cells: human PBMCs from healthy donors
T1 sequence (Q9NYK1 27-1049): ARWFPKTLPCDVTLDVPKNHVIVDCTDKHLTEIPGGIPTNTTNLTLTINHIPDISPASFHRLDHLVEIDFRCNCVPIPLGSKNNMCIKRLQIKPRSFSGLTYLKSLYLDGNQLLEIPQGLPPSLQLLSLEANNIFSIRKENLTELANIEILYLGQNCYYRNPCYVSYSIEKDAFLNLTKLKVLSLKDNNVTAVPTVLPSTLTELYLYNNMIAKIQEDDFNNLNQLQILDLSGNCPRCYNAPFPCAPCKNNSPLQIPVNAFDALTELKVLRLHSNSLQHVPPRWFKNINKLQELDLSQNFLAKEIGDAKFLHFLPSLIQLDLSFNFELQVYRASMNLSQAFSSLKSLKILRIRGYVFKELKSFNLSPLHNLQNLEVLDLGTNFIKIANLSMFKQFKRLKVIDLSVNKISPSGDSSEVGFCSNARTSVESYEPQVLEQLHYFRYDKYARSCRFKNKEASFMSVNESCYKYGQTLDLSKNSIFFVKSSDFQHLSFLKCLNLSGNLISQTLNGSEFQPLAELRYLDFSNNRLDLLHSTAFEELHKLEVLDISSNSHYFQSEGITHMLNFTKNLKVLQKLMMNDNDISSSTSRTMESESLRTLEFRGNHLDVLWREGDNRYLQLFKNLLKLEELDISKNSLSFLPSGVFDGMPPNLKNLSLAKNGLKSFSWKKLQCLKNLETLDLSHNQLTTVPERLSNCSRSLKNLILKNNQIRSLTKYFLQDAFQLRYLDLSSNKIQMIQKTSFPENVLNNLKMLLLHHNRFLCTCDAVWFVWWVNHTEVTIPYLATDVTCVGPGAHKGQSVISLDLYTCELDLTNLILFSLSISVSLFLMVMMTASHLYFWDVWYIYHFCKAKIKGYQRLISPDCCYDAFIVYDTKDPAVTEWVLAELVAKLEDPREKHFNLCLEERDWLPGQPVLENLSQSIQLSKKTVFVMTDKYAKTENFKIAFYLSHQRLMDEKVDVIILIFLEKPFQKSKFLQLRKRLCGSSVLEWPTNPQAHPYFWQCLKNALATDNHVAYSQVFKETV
The experiment can be described thus: Human PBMC cell-based assay, TLR7 agonist GS-986 stimulation, cytokine (IL-6 and IFNα) readout. As to conditions: human PBMCs, GS-986 400 nM, 6 hours; Table 26; read-out: TLR-7 EC50. From the text:
(§1) Human peripheral blood mononuclear cells (PBMCs) consist of lymphocytes, monocytes and dendritic cells that express TLR7, TLR8 and TLR9. These cells respond to TLR7, TLR8 and TLR9 ligand stimulation and produce cytokines and chemokines in vitro and in vivo. Human PBMCs are therefore suitable to be used in a cell-based assay to assess the in vitro potency of a TLR 7, 8, and/or 9 antagonist. The result is expected to be more translatable to the pharmacodynamics response in vivo than cell line-based assays.
(§2) Cryopreserved human PBMCs from healthy donors were thawed and resuspended in RPMI-1640 media with L-glutamine (Corning) supplemented with 10% Fetal Bovine Serum (Hyclone) and 1X Penicillin-Streptomycin (Corning). After counting, the cell density was adjusted to 2 million cells/ml and incubated for 1 hour at 37° C., 5% CO2 for recovery. Following the recovery, the cells were plated by adding 50p per well (100,000 cells) to 384-well cell culture plates (Greiner) containing 250nl of test antagonists in 100% DMSO per well, in a 10 points dose response in quadruplicates. PBMCs were incubated in the presence of test antagonists for one hour at 37° C., 5% CO2 before being stimulated with a TLR7 or TLR9 agonist. GS-986 (Gilead Sciences) was used as the TLR7 agonist at a final concentration of 400 nM. ODN-2216 (InvivoGen) was used as the TLR9 agonist at a final concentration of 3μM. PBMCs were incubated in the presence of the test antagonist and the TLR7 (or TLR9) agonist for an additional 6 hours at 37° C., 5% CO2. At the end of the incubation, the cell culture plates were centrifuged at 500 g for 5 min, and the cell culture supernatant was collected. The level of cytokines (IL-6 and IFNα) in the supernatant was measured by electrochemiluminescence immunoassays (Mesoscale Discovery) following manufacturer's recommended protocols. The level of cytokine measured was plotted against the test antagonist concentration and fitted to a sigmoidal function to determine the EC50, which are shown below in Table 26.

For experiment [2], the target named is T2, TLR9 (Homo sapiens, UniProt Q9NR96).
T2 construct: lymphocytes, monocytes and dendritic cells that express TLR7, TLR8 and TLR9; endogenous in cells; host or cells: human PBMCs from healthy donors
T2 sequence (Q9NR96 26-1032): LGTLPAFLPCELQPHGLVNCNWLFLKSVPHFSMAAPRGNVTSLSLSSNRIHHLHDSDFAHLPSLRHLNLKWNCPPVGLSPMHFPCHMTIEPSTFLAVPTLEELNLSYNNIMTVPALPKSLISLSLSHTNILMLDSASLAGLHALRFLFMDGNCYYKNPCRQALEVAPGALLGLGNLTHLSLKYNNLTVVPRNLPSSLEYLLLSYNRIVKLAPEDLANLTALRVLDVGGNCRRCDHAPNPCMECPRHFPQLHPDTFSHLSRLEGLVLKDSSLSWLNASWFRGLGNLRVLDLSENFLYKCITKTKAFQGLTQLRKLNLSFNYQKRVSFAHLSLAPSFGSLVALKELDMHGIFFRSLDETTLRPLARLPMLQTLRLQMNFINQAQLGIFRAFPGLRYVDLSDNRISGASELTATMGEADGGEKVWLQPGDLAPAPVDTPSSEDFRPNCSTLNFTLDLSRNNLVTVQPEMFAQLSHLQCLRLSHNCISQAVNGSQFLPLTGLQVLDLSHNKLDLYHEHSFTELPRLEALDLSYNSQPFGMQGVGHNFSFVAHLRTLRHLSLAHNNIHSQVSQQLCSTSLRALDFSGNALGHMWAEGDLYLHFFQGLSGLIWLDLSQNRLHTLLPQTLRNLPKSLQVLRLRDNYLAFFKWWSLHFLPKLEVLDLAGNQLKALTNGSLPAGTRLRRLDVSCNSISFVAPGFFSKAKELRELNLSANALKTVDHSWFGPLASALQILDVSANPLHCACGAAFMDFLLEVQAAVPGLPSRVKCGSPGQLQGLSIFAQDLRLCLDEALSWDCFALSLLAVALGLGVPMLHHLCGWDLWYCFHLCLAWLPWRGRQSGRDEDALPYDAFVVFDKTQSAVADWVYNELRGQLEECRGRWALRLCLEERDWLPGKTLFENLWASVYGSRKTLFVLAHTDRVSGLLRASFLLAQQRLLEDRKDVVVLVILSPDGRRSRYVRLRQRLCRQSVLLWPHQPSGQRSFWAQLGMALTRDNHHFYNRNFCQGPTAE
Kind of experiment: Human PBMC cell-based assay, TLR9 agonist ODN-2216 stimulation, cytokine (IL-6 and IFNα) readout. To be noted: human PBMCs, ODN-2216 3 μM, 6 hours; Table 26; read-out: TLR-9 EC50.
From the text: as §1, §2

“2-(2,6-dimethylpyridin-4-yl)-3-methyl-6-(1′,2′,3′,6′-tetrahydro-[2,4′-bipyridin]-5-yl)-1H-indole [Example 133]”: the values for the EC50 in experiment [1] and in experiment [2] were 24.8 nM and 50.4 nM, respectively. For `Cc1cc(-c2[nH]c3cc(-c4cnc(N5CCNCC5)c(C)c4)ccc3c2C)cc(C)n1` [Example 3], in that order: 22.8 nM and 56.3 nM. On to `Cc1cc(-c2[nH]c3cc(-c4ccc(N5CCNCC5)nc4C)ccc3c2C)cc(C)n1` [Example 4], for which the EC50 (usually the concentration giving half of the maximal effect) amounted to 26.1 nM in experiment [1] and 153 nM in experiment [2]. For the molecule `Cc1cc(-c2[nH]c3cc(-c4ccc(N)nc4)ccc3c2C)cc(C)n1` [Example 5], the EC50 in experiment [1] amounted to 154 nM; in experiment [2] it was 227 nM. In the same order, the values of `Cc1cc(-c2[nH]c3cc(-c4cnn(C5CCNCC5)c4)ccc3c2C)cc(C)n1` [Example 6] are 15.8 nM and 84.5 nM. In the same order, the values of `Cc1cc(-c2[nH]c3cc(-c4ccc(CN5CCNCC5)cc4)ccc3c2C)cc(C)n1` [Example 7] are 170 nM and 87.2 nM. For `Cc1cc(-c2[nH]c3cc(-c4ccc(C(=O)N5CCNCC5)cc4)ccc3c2C)cc(C)n1` [Example 8], the values for the EC50 in experiment [1] and in experiment [2] were 84.3 nM and 84.4 nM, respectively. For `Cc1cc(-c2[nH]c3cc(-c4cnc5c(c4)CNCC5)ccc3c2C)cc(C)n1` [Example 9], the EC50 worked out at 38.1 nM in experiment [1] and 50.5 nM in experiment [2]. For `Cc1cc(-c2[nH]c3cc(-c4cnn5c4CNCC5)ccc3c2C)cc(C)n1` [Example 10], in that order: 210 nM and 392 nM.

With `Cc1cc(-c2[nH]c3cc(-c4cn(C5CCNCC5)nc4C)ccc3c2C)cc(C)n1` [Example 11], the EC50 is 345 nM in experiment [1] and 228 nM in experiment [2]. In the same order, the values of `Cc1cc(-c2[nH]c3cc(-c4cccc(C(=O)N5CCNCC5)c4)ccc3c2C)cc(C)n1` [Example 12] are 103 nM and 47.3 nM. In the same order, the values of `Cc1cc(-c2[nH]c3cc(-c4ccc5c(c4)CCNC5)ccc3c2C)cc(C)n1` [Example 13] are 102 nM and 19.3 nM. In the same order, the values of `Cc1cc(-c2[nH]c3cc(-c4ccc5c(c4)CNCC5)ccc3c2C)cc(C)n1` [Example 14] are 213 nM and 108 nM. Take `Cc1cc(-c2[nH]c3cc(-c4ccc5c(c4)CCCN5)ccc3c2C)cc(C)n1` [Example 43]: the EC50 in experiment [2] was found to be 1340 nM.

Regarding `Cc1c(-c2cc(C)c3ncnn3c2)[nH]c2cc(-c3cnc4c(c3)CNCC4)ccc12` [Example 170], the EC50 in experiment [1] is 1.37 nM.

For the molecule `Cc1c(-c2cc(C)c3ncnn3c2)[nH]c2cc(-c3ccc4nc([C@H]5N[C@@H]6CC[C@H]5C6)[nH]c4c3)ccc12` [Example 171], the EC50 in experiment [1] is 0.11 nM. Same read-out and setting: next, `Cc1c(-c2cc(C)c3ncnn3c2)[nH]c2cc(-c3ccc4c(c3)ncn4C3CC4CC3CN4)ccc12` (stereo not shown) [Example 176]: 1.01 nM; `CCc1c(-c2cc(C)c3ncnn3c2)[nH]c2cc(-c3ccc(N4CCN(CC(N)=O)CC4)nc3)ccc12` [Example 177, 2-(4-(5-(3-ethyl-2-(8-methyl-[1,2,4]triazolo[1,5-a]pyridin-6-yl)-1H-indol-6-yl)pyridin-2-yl)piperazin-1-yl)acetamide]: 1.66 nM.

For `Cc1c(-c2cc(C)c3ncnn3c2)[nH]c2cc(-c3nc4ccccc4[nH]3)ccc12` [Example 193, 6-[6-(1H-benzimidazol-2-yl)-3-methyl-1H-indol-2-yl]-8-methyl-[1,2,4]triazolo[1,5-a]pyridine], in experiment [1], the EC50 was 483 nM. As for `Cc1c(-c2cc(C)c3ncnn3c2)[nH]c2cc(-c3nc4ccccc4n3C)ccc12` [Example 194], the EC50 in experiment [1] was 631 nM. Still for that read-out and setting: then `Cc1cc(-c2[nH]c3cc(-c4ccc5nc([C@@H]6N[C@H]7CC[C@@H]6C7)[nH]c5c4)ccc3c2C)cc(C)n1` [Example 195, 2-[(1S,3R,4R)-2-azabicyclo[2.2.1]heptan-3-yl]-6-[2-(2,6-dimethyl-4-pyridyl)-3-methyl-1H-indol-6-yl]-1H-benzimidazole], with 4.48 nM.
